Consider one compound from US10154970B2, “Methods for immunomodulation of cancer and infectious disease therapy” (The Regents of the University of California, priority 2014, dated 2018).

For assay [1], the system named is IFN-γ. Briefly: Experiment 5: serum IFN-γ cytokine analysis. The format is in vivo, human MUC1.Tg C57BL/6 mice. The following applies: TRIP 100 mg/kg or letrozole 0.8 mg/kg daily oral 14 days. The method, then:
FIG. 13. Effects of TRIP on serum IFN-γ compared to estradiol and letrozole. Serum IFN-γ from untreated control, TRIP (100 mg/kg), estradiol (E2; 25 μg/kg), and letrozole (0.8 mg/kg) groups were analyzed following daily treatment for 14 days (n=8 all groups). **p<0.01, ***p<0.001.
TRIP and letrozole were prepared in DMSO and peanut oil as described above in Experiment 2 and administered daily for 14 days by oral gavage (100 μL). Estradiol was dissolved in 100% ethanol, diluted in PBS to achieve the desired concentration, and then administered daily for 14 days by s.c. injection at rotating sites using a 25-gauge needle. In Week 19, the study was terminated, 24 hours after the last treatments, and serum and spleens were collected for surface marker and Treg analyses.

The subject of assay [2] is IFN-γ. The assay is described as follows: IFN-γ mRNA expression in Jurkat cells by qRT-PCR, normalized with GAPDH. Format: cell-based, human. On the procedure:
FIG. 1. Interferon gamma (IFN-γ) and interleukin (IL)-2 expression in human Jurkat cells following exposure to TRIP in vitro. Jurkat cells (2×10^6) were treated with different concentrations of TRIP as indicated for 24 hours. (A) IFN-γ and (B) IL-2 mRNA expression levels were detected by quantitative real-time polymerase chain reaction (qRT-PCR) and normalized with the expression of GAPDH. *p<0.05, **p<0.01, ***p<0.001.
FIG. 2. Effect of tamoxifen on TRIP-induced expression of IFN-γ in vitro. Jurkat cells (2×10^6) were treated with TRIP (2.5 μM) and/or tamoxifen (2.5 μM) for 24 hours. The expression levels of IFN-γ were analyzed by qRT-PCR and normalized with GAPDH. **p<0.01, ***p<0.005.
FIG. 3. Effects of TRIP alone and in combination with trifluoperazine (TFP) or LY294002 (LY) on IFN-γ and IL-2 in human Jurkat cells in vitro. Jurkat cells (2×10^6) were pretreated with different concentrations of (A, B) TFP (0, 0.1, 1.0, 5.0, and 10.0 μM) and (C, D) LY294002 (0, 1, 5, 10, and 25 μM) for 1 hour, then incubated with medium containing 2.5 μM of TRIP for 24 hours. (A, C) IFN-γ and (B, D) IL-2 mRNA expression levels were detected by qRT-PCR and normalized with the expression of GAPDH. *p<0.05, **p<0.01, ***p<0.001.
FIG. 4. Effects of calmodulin, PI3K and MAPK inhibition on TRIP-induced expression of IFN-γ and IL-2 in human Jurkat cells in vitro. Jurkat cells (2×10^6) were pretreated with PD98059 (50 μM), TFP (10 μM) and LY294002 (25 μM) for 1 hour, then incubated with medium containing 2.5 μM of TRIP for 24 hours. (A) IFN-γ and (B) IL-2 mRNA expression levels were detected by qRT-PCR and normalized with the expression of GAPDH. **p<0.01, ***p<0.001, ****p<0.0001.
The potential immune regulating effects of TRIP and the possible mechanism(s) involved were determined with in vitro experiments examining the expression of T cell activating cytokines in human acute T cell leukemia Jurkat cells. The expression of IFN-γ and IL-2 RNA following exposure to increasing concentrations of TRIP (i.e., ospemifene) were first examined, followed by the effects of combining tamoxifen with TRIP on the expression of these cytokines. Different inhibitors of key T cell activation pathways—trifluoperazine (TFP), an inhibitor of calmodulin, LY294002, an inhibitor of PI3K, and PD98059, a MAPK inhibitor—in combination with TRIP were assessed for their effects on TRIP-induced expression of IFN-γ and IL-2 in Jurkat cells.
Jurkat cells (2.0×10^6) were treated with different concentrations of TRIP as indicated on the x-axis for 24 hours. (A) IFN-γ and (B) IL-2 mRNA expression levels were detected by quantitative real-time polymerase chain reaction (qRT-PCR) and normalized with the expression of GAPDH. *p<0.05, **p<0.01, ***p<0.001.
The expression levels of IFN-γ were analyzed by qRT-PCR and normalized with GAPDH. **p<0.01, ***p<0.001.
T cell activation requires multiple signals including PI3K, MAPK and calcium signaling pathways, and in order to identify the potential mechanism through which TRIP affects immune activation, Jurkat cells (2.0×10^6) were pretreated with different concentrations of TFP (0, 0.1, 1.0, 5.0 and 10.0 μM) (A, B) or LY294002 (0, 1, 5, 10 and 25 μM) (C, D) for one hour, then incubated with medium containing 2.5 μM TRIP for 24 hours. IFN-γ and IL-2 expression levels were detected by qRT-PCR and normalized with the expression of GAPDH. *p<0.05, **p<0.01, ***p<0.001.
Jurkat cells (2×10^6) were pretreated with PD98059 (50 μM), TFP (10 μM) or LY294002 (25 μM) for one hour, then incubated with medium containing 2.5 μM TRIP for 24 hours. (A) IFN-γ and (B) IL-2 mRNA expression levels were detected by qRT-PCR and normalized with expression of GAPDH. **p<0.01, ***p<0.001, ****p<0.0001.
The effects on T cell activation of different functional group substitutions on the TRIP chemical structure (Formula Ia) were examined by measuring the expression of IFN-γ and IL-2 RNA in human acute T cell leukemia Jurkat cells in vitro. […]

Consider `OCCOc1ccc(/C(=C(/CCCl)c2ccccc2)c2ccccc2)cc1` [TRIP, Z-2-[4-(4-chloro-1,2-diphenyl-but-1-enyl)-phenoxy]ethanol], for which the “serum IFN-γ concentrations compared to estradiol” value in the assay on IFN-γ [1] is recorded as “significantly increased”. Further, the “expression of IFN-γ compared to control, TRIP+tamoxifen” value in the assay on IFN-γ [2] (Jurkat cells, TRIP 2.5 μM plus tamoxifen 2.5 μM, 24 hours (FIG. 2)) is recorded as “significantly increased”. For the same compound, the “IFN-γ RNA expression compared to control” value with IFN-γ [2] (Jurkat cells, different concentrations of TRIP, 24 hours, dose-dependent (FIG. 1A)) is “significantly induced”. In the assay on IFN-γ [2] (Jurkat cells, single agent 2.5 μM, 24 hours (FIG. 2)), the “expression of IFN-γ compared to control” value is recorded as “significantly increased”. Also, in the assay with IFN-γ [2] (mRNA in Jurkat cells in vitro, relative to control sample without TRIP compound), the “IFN-γ Expression” value is given as “+++ (strong increase)”.
